Source: ChEMBL document CHEMBL4265897, “Discovery of benzothiazole amides as potent antimycobacterial agents” (Bioorg Med Chem Lett, 2018)
≈ marks a conversion by molar mass, not a printed value.

Experiments:
[1] = system: Mycobacterium tuberculosis; assay: Antimycobacterial activity against Mycobacterium tuberculosis H37Rv MC2 6206 by CLSI method; format: functional
[2] = system: Mycobacteroides abscessus; assay: Antimycobacterial activity against Mycobacterium abscessus 21 by CLSI method; format: functional
[3] = system: Mycolicibacterium peregrinum; assay: Antimycobacterial activity against Mycobacterium peregrinum ATCC 700686 by CLSI method; format: functional
[4] = system: Mycolicibacterium fortuitum; assay: Antimycobacterial activity against Mycobacterium fortuitum 41 by CLSI method; format: functional
Mycobacterium avium = assay: Antimycobacterial activity against Mycobacterium avium 101 by CLSI method; format: functional
Mycobacteroides chelonae = assay: Antimycobacterial activity against Mycobacterium chelonae 93 by CLSI method; format: functional
[5] = system: Mycobacteroides abscessus; assay: Antimycobacterial activity against Mycobacterium massiliense 119 by CLSI method; format: functional, Mycobacterium abscessus subsp. massiliense
[6] = system: Mycobacteroides abscessus; assay: Antimycobacterial activity against Mycobacterium abscessus 1 by CLSI method; format: functional
[7] = system: Mycobacterium intracellulare; assay: Antimycobacterial activity against Mycobacterium intracellulare 1956 by CLSI method; format: functional
[8] = system: Mycobacteroides abscessus; assay: Antimycobacterial activity against Mycobacterium abscessus 79 by CLSI method; format: functional
[9] = system: Mycobacteroides abscessus; assay: Antimycobacterial activity against Mycobacterium abscessus 103 by CLSI method; format: functional

| SMILES | MIC [1] [µg/mL] | MIC [2] [µg/mL] | MIC [3] [µg/mL] | MIC [4] [µg/mL] | MIC (Mycobacterium avium) [µg/mL] | MIC (Mycobacteroides chelonae) [µg/mL] | MIC [5] [µg/mL] | MIC [6] [µg/mL] | MIC [7] [µg/mL] | MIC [8] [µg/mL] | MIC [9] [µg/mL] |
| --- | --- | --- | --- | --- | --- | --- | --- | --- | --- | --- | --- |
| CC1CC(C(=O)Nc2nc3ccc(OC(F)F)cc3s2)CC(C)(C)C1 (stereo not drawn) | 2 (≈ 5.43 µM) | 0.5 (≈ 1.36 µM) | 0.12 (≈ 0.326 µM) | 0.5 (≈ 1.36 µM) | > 64 | 0.25 (≈ 0.679 µM) | 0.5 (≈ 1.36 µM) | 1 (≈ 2.71 µM) | 8 (≈ 21.7 µM) | 0.5 (≈ 1.36 µM) | 0.5 (≈ 1.36 µM) |
| CC1CC(C(=O)Nc2nc3cc(C(F)(F)F)ccc3s2)CC(C)(C)C1 (stereo not drawn) | ≤ 0.12 | 0.25 (≈ 0.675 µM) | 0.12 (≈ 0.324 µM) | 0.25 (≈ 0.675 µM) | > 64 | 0.25 (≈ 0.675 µM) | 0.5 (≈ 1.35 µM) | – | > 64 | 0.25 (≈ 0.675 µM) | 0.5 (≈ 1.35 µM) |
| CC12CCCC(C(=O)Nc3nc4cc(F)cc(F)c4s3)(CCC1)C2 | – | 0.06 (≈ 0.171 µM) | 0.06 (≈ 0.171 µM) | 0.25 (≈ 0.713 µM) | 4 (≈ 11.4 µM) | 0.06 (≈ 0.171 µM) | 0.25 (≈ 0.713 µM) | 0.12 (≈ 0.342 µM) | 4 (≈ 11.4 µM) | 0.06 (≈ 0.171 µM) | 0.06 (≈ 0.171 µM) |
| CC12CCCC(C(=O)Nc3nc4cc(Br)ccc4s3)(CCC1)C2 | ≤ 0.12 | 0.06 (≈ 0.153 µM) | ≤ 0.07 | 0.03 (≈ 0.0763 µM) | 4 (≈ 10.2 µM) | 0.06 (≈ 0.153 µM) | 0.06 (≈ 0.153 µM) | 0.25 (≈ 0.636 µM) | 1 (≈ 2.54 µM) | 0.06 (≈ 0.153 µM) | 0.06 (≈ 0.153 µM) |
| CC1(C(=O)Nc2nc3ccc(OC(F)(F)F)cc3s2)CCCCC1 | 4 (≈ 11.2 µM) | 0.12 (≈ 0.335 µM) | 0.5 (≈ 1.4 µM) | 2 (≈ 5.58 µM) | 8 (≈ 22.3 µM) | 0.25 (≈ 0.698 µM) | 0.12 (≈ 0.335 µM) | – | 4 (≈ 11.2 µM) | 0.12 (≈ 0.335 µM) | 0.12 (≈ 0.335 µM) |
| Cc1cc(C)c2sc(NC(=O)C34CCCC(C)(CCC3)C4)nc2c1 | – | 0.12 (≈ 0.35 µM) | 0.25 (≈ 0.73 µM) | 1 (≈ 2.92 µM) | 8 (≈ 23.4 µM) | 0.12 (≈ 0.35 µM) | 0.12 (≈ 0.35 µM) | 0.25 (≈ 0.73 µM) | 8 (≈ 23.4 µM) | 0.12 (≈ 0.35 µM) | 0.25 (≈ 0.73 µM) |
| CC1CC(C(=O)Nc2nc3ccccc3s2)CC(C)(C)C1 (stereo not drawn) | 8 (≈ 26.5 µM) | 2 (≈ 6.61 µM) | 0.5 (≈ 1.65 µM) | 1 (≈ 3.31 µM) | 8 (≈ 26.5 µM) | 1 (≈ 3.31 µM) | 2 (≈ 6.61 µM) | 2 (≈ 6.61 µM) | 8 (≈ 26.5 µM) | 1 (≈ 3.31 µM) | 1 (≈ 3.31 µM) |
| CC1CC(C(=O)Nc2nc3cc(Cl)cc(Cl)c3s2)CC(C)(C)C1 (stereo not drawn) | 1 (≈ 2.69 µM) | 0.25 (≈ 0.673 µM) | 0.12 (≈ 0.323 µM) | 0.25 (≈ 0.673 µM) | 8 (≈ 21.5 µM) | 0.12 (≈ 0.323 µM) | 0.25 (≈ 0.673 µM) | – | 16 (≈ 43.1 µM) | 0.12 (≈ 0.323 µM) | 0.5 (≈ 1.35 µM) |
